Data reported in patent US5633219A, “5H-pyrrolo(3',4':5,6)(1,4)dithiin o(2,3-C)(1,2,5)thiadiazole-5,7(6H)-dione, compositions containing them and their use as antimicrobial and marine antifouling agents” (The Dow Chemical Company, priority 1996, dated 1997).
≈ marks a conversion by molar mass, not a printed value. Read-outs that look alike come from different tables or passages of the source.

How the values were obtained:
[1] = tested on: marine organisms; test: Marine antifouling rating of coated test panels exposed under a marine surface; settings: scale 10 (completely free of growth) to 0 (completely covered), 1.0 g compound in 9.0 g latex binder
Description: Test panels are prepared from clear, rigid polyvinyl chloride film that is 0.381×10^-3 m thick and has one textured surface. The test panels are 0.1524 m by 0.1524 m squares that have 0.00635 m holes punched at corners on 0.127 m centers. A 0.102 square template, with a 0.067 m diameter hole at the center, is attached to the center of the textured surface of the test panels.
A candidate marine antifoulant compound (1.0 g) is stirred into a resinous latex binder (9.0 g). A portion of the compound/binder mixture (1.5 g) is added to the center of the test panel and uniformly spread over the circular area inside the template.
Water is added dropwise as needed to properly spread the compound/binder mixture. The template prevents the compound/binder mixture from spreading beyond the uncovered area. The test panel is allowed to sit for between 10 to 30 minutes until the edge of the spread compound/binder mixture has dried. The template is then removed. The test panel is then allowed to dry for 8 to 12 hours at room temperature.
Two test panels are prepared for each candidate marine antifoulant compound. Two control test panels are also prepared by only treating with the resinous latex binder. One test panel of each candidate marine […] compound is attached over a white background to the topside of an exposure support apparatus. The second test panel is attached over a black background to the underside of the exposure support apparatus. The exposure support apparatus is placed horizontally 0.0254 m under a marine surface with the white background topside facing up. […]
After being removed from the exposure support apparatus, each test panel is inspected and rated for marine organism growth on both the treated and untreated areas of the test panel. The marine organisms present on the treated and untreated areas are noted. The presence of algae spores and bacterial slime are noted but not included in rating each test panel. The test panels are rated on a scale from 10 (representing completely free of marine organism growth) to 0 (representing completely covered with marine organism growth).

[2] = tested on: Fusarium oxysporum (Of); test: Minimum inhibitory concentration, malt yeast agar, Fusarium oxysporum; assay type: cell-based, Fusarium oxysporum ATCC 48112; settings: 30° C, 72 hours (fungi), read-out: Minimum Inhibitory Concentration, Fo
Description: (§1) Malt yeast agar is prepared by adding 3 g yeast extract and 45 g malt agar per liter of deionized water. The specific agar is dispensed in 30 mL aliquots into 25×200 mm test tubes, capped and autoclaved for 15 minutes at 115° C.
(§2) The inoculation with the yeast and fungi is accomplished as follows. Cultures of yeast and fungi are incubated for seven days on malt yeast agar at 30° C. These cultures are used to prepare suspensions by the following procedure. A suspension of each organism is prepared by adding 10 mL of sterile saline and 10 microliters of octylphenoxy polyethoxy ethanol to the agar slant of yeast or fungi. The sterile saline/octylphenoxy polyethoxy ethanol solution is then agitated with a sterile swab to suspend the microorganism grown on the slant. Each resulting suspension is diluted into sterile saline (1 part suspension to 9 parts sterile saline). Aliquots of these dilutions are placed in individual wells of Steer's Replicator and petri plates inoculated as previously described. The petri plates are incubated at 30° C. and read after 48 hours for yeast and 72 hours for fungi.

[3] = tested on: Candida albicans (Ca); test: Minimum inhibitory concentration, malt yeast agar, Candida albicans; assay type: cell-based, Candida albicans ATCC 10231; settings: malt yeast agar, 30° C, 48 hours (yeast); read-out: Minimum Inhibitory Concentration, Ca
Description: as §1, §2

[4] = tested on: Klebsiella pneumoniae (Kp); test: Minimum inhibitory concentration, nutrient agar, Klebsiella pneumoniae; settings: 48 h
[5] = tested on: Proteus vulgaris (Pv); test: Minimum inhibitory concentration, nutrient agar, Proteus vulgaris; settings: 48 h
[6] = tested on: Pseudomonas aeruginosa (PRD-10); test: Minimum inhibitory concentration, nutrient agar, Pseudomonas aeruginosa PRD-10; settings: 48 h
[7] = tested on: Escherichia coli (Ec); test: Minimum inhibitory concentration, nutrient agar, Escherichia coli; settings: 48 h
[8] = tested on: Saccharomyces cerevisiae (Sc); test: Minimum inhibitory concentration, malt yeast agar, Saccharomyces cerevisiae; assay type: cell-based, Saccharomyces cerevisiae ATCC 4105; settings: malt yeast agar, 30° C, 48 hours (yeast), read-out: Minimum Inhibitory Concentration, Sc
Description: as §1, §2

[9] = tested on: Bacillus subtilis (Bs); test: Minimum inhibitory concentration, nutrient agar, Bacillus subtilis; settings: 48 h
[10] = tested on: Aureobasidium pullulan (Ap); test: Minimum inhibitory concentration, malt yeast agar, Aureobasidium pullulan; assay type: cell-based, Aureobasidium pullulan ATCC 16622; settings: 30° C, 48 hours for yeast and 72 hours for fungi
Description: as §1, §2

[11] = tested on: Staphylococcus aureus (Sa); test: Minimum inhibitory concentration, nutrient agar, Staphylococcus aureus; settings: 48 h
[12] = tested on: Trichoderma viride (Tv); test: Minimum inhibitory concentration, malt yeast agar, Trichoderma viride; assay type: cell-based, Trichoderma viride ATCC 8678; settings: malt yeast agar, 30° C, 72 hours (fungi); read-out: Minimum Inhibitory Concentration, Tv
Description: as §1, §2

[13] = tested on: Penicillium chrysogenum (PC); test: Minimum inhibitory concentration, malt yeast agar, Penicillium chrysogenum; assay type: cell-based, Penicillium chrysogenum ATCC 9480; settings: malt yeast agar, 30° C, 72 hours (fungi); read-out: Minimum Inhibitory Concentration, Pc
Description: as §1, §2

[14] = tested on: Salmonella choleraesuis (Sc); test: Minimum inhibitory concentration, nutrient agar, Salmonella choleraesuis; assay type: cell-based, Salmonella choleraesuis ATCC 10708; settings: Salmonella enterica, 30° C, 48 hours
[15] = tested on: Aspergillus niger (An); test: Minimum inhibitory concentration, malt yeast agar, Aspergillus niger; assay type: cell-based, Aspergillus niger ATCC 16404; settings: 30° C, 72 hours (fungi)
Description: as §1, §2

[16] = tested on: Pseudomonas aeruginosa (Pa); test: Minimum inhibitory concentration, nutrient agar, Pseudomonas aeruginosa; assay type: cell-based, Pseudomonas aeruginosa ATCC 10145; settings: 30° C, 48 hours
[17] = tested on: Enterobacter aerogenes (Ea); test: Minimum inhibitory concentration, nutrient agar, Enterobacter aerogenes; settings: Klebsiella aerogenes, 48 h

## CCCn1c(=O)c2sc3nsnc3sc=2c1=O [IV, 6-n-Propyl-5H-Pyrrolo(3',4':5,6)(1,4)dithiino-(2,3-C)(1,2,5)thiadiazole-5,7(6H) -dione]
[1]; 6 weeks
  Marine Antifouling Rating, Bottom Panel: 9
  Marine Antifouling Rating, Top Panel: 9
[1]; 10 weeks
  Marine Antifouling Rating, Bottom Panel: 7
  Marine Antifouling Rating, Top Panel: 7
[1]; 16 weeks
  Marine Antifouling Rating, Bottom Panel: 7
  Marine Antifouling Rating, Top Panel: 7
[2]
  MIC: < 1 µg/mL
[3]
  MIC: < 1 µg/mL
[4]; pH 6.8, read-out: Minimum inhibitory Concentration, Kp
  MIC: > 500 µg/mL
[4]; pH 8.2, read-out: Minimum inhibitory Concentration, Kp
  MIC: > 500 µg/mL
[5]; pH 6.8, read-out: Minimum inhibitory Concentration, Pv
  MIC: 250 µg/mL (≈ 876 µM)
[5]; pH 8.2, read-out: Minimum inhibitory Concentration, Pv
  MIC: > 500 µg/mL
[6]; pH 6.8, read-out: Minimum inhibitory Concentration, PRD
  MIC: > 500 µg/mL
[6]; pH 8.2, read-out: Minimum inhibitory Concentration, PRD
  MIC: > 500 µg/mL
[7]; pH 6.8, read-out: Minimum inhibitory Concentration, Ec
  MIC: > 500 µg/mL
[7]; pH 8.2, read-out: Minimum inhibitory Concentration, Ec
  MIC: > 500 µg/mL
[8]
  MIC: < 1 µg/mL
[9]; pH 6.8, read-out: Minimum inhibitory Concentration, Bs
  MIC: < 10 µg/mL
[9]; pH 8.2, read-out: Minimum inhibitory Concentration, Bs
  MIC: 250 µg/mL (≈ 876 µM)
[10]
  MIC: < 1 µg/mL
[11]; pH 6.8, read-out: Minimum inhibitory Concentration, Sa
  MIC: 50 µg/mL (≈ 175 µM)
[11]; pH 8.2, read-out: Minimum inhibitory Concentration, Sa
  MIC: 50 µg/mL (≈ 175 µM)
[12]
  MIC: < 1 µg/mL
[13]
  MIC: < 1 µg/mL
[14]; pH 6.8, nutrient agar
  MIC: 500 µg/mL (≈ 1750 µM)
[14]; pH 8.2, nutrient agar
  MIC: > 500 µg/mL
[15]
  MIC: < 1 µg/mL
[16]; pH 6.8, nutrient agar
  MIC: > 500 µg/mL
[16]; pH 8.2, nutrient agar
  MIC: > 500 µg/mL
[17]; pH 6.8, read-out: Minimum inhibitory Concentration, Ea
  MIC: > 500 µg/mL
[17]; pH 8.2, read-out: Minimum inhibitory Concentration, Ea
  MIC: > 500 µg/mL
